Measured values as given in the PolyMetriX glass transition set.
± gives the standard deviation of the reports.

For `*C(=O)Nc1ccccc1NC(=O)c1ccc(N2C(=O)c3ccc(*)cc3C2=O)cc1` (repeat unit), the glass transition temperature was 215.00 °C.
Work on `*CC(C)(C)COC(=O)NC(=O)c1cccc(C(=O)NC(=O)O*)c1` (repeat unit) yielded a glass transition temperature of 66.00 °C.
Work on `*c1ccc(-c2nc3cc(S(=O)(=O)c4ccc5nc(-c6ccccc6)c(-c6ccc(-n7c(=O)c8cc9c(=O)n(*)c(=O)c9cc8c7=O)cc6)nc5c4)ccc3nc2-c2ccccc2)cc1` (repeat unit) yielded a glass transition temperature of 186.00 °C.
In the case of `*/C(=C/c1ccc(/C=C(\c2ccccc2)c2ccc(-c3ccc(*)cc3)cc2)cc1)c1ccccc1` (repeat unit), the glass transition temperature is reported as 220.00 °C.
For `*CC(*)(C)C(=O)OCCn1c2ccccc2c2cc(/N=N/c3ccc([N+](=O)[O-])cc3)ccc21` (repeat unit), the glass transition temperature was 164.00 °C.
In the case of `*CCCCc1ccc(-c2c(-c3ccccc3)cc(-c3ccc(-c4cc(-c5ccccc5)c(-c5ccc(*)cc5)c(-c5ccccc5)c4-c4ccccc4)cc3)c(-c3ccccc3)c2-c2ccccc2)cc1` (repeat unit), the glass transition temperature is reported as 205.00 °C.
With `*c1ccc(Oc2ccc(S(=O)(=O)c3ccc(Oc4ccc(N5C(=O)C6CCC(C7CCC8C(=O)N(*)C(=O)C8C7)CC6C5=O)cc4)cc3)cc2)cc1` (repeat unit) the glass transition temperature was 256.50 °C.
For `*C(=O)c1ccc2c(c1)C(=O)N(c1cccc(P(=O)(c3ccc(C(F)(F)F)cc3)c3cccc(N4C(=O)c5ccc(*)cc5C4=O)c3)c1)C2=O` (repeat unit), the glass transition temperature was 264.00 °C.
For `*/C=C/C(C)C(*)C(=O)OC12CC3CC(CC(C3)C1)C2` (repeat unit), the glass transition temperature was 115.00 °C.
`*c1cccc(N2C(=O)C(=O)N(CCCCCCN3C(=O)C(=O)N(*)C3=O)C2=O)n1` (repeat unit) showed a glass transition temperature of 169.50 °C.
`*CCN(CCOC(=O)c1ccc([Si](C)(C)c2ccc(C(=O)O*)cc2)cc1)c1ccc(/C=C/c2ccc([N+](=O)[O-])cc2)cc1` (repeat unit) gave a glass transition temperature of 127.00 °C.
Compound `*Oc1ccc(C(C)(C)c2ccc(OC(=O)c3ccc(C(=O)c4ccc(C(*)=O)cc4)cc3)cc2)cc1` (repeat unit) has a glass transition temperature of 194.00 °C.
For `*c1ccc(Oc2ccc(Oc3ccc(Oc4ccc(N5C(=O)c6ccc(-c7ccc8c(c7)C(=O)N(*)C8=O)cc6C5=O)cc4)cc3)cc2)cc1` (repeat unit), the glass transition temperature was 228.51 °C.
`*CC(*)(C)C(=O)Oc1ccc(C(=O)OC)cc1` (repeat unit) showed a glass transition temperature of 109.00 °C.
For `*c1ccc(Oc2cccc(N3C(=O)c4ccc(-c5cccc6c5C(=O)N(*)C6=O)cc4C3=O)c2)cc1` (repeat unit), the glass transition temperature was 286.00 °C.
In the case of `*CC(OC(C)C)C1C(=O)OC(=O)C1*` (repeat unit), the glass transition temperature is reported as 142.00 °C.
Work on `*c1cccc(P(=O)(c2cccc(-n3c(=O)c4c(-c5ccccc5)c5c(=O)n(*)c(=O)c5c(-c5ccccc5)c4c3=O)c2)c2cc(C(F)(F)F)cc(C(F)(F)F)c2)c1` (repeat unit) yielded a glass transition temperature of 320.00 °C.
In the case of `*c1ccc(C(C)(C)c2ccc(N3C(=O)c4ccc(Oc5ccc6cc(Oc7ccc8c(c7)C(=O)N(*)C8=O)ccc6c5)cc4C3=O)cc2)cc1` (repeat unit), the glass transition temperature is reported as 236.00 °C.
`*C(=O)c1ccc2c(c1)C(=O)N(c1ccc(Oc3ccc(NC(=O)c4cccc(C(=O)Nc5ccc(Oc6ccc(N7C(=O)c8ccc(*)cc8C7=O)cc6)cc5)c4)cc3)cc1)C2=O` (repeat unit) showed a glass transition temperature of 232.00 °C.
In the case of `*Oc1ccc(C2(c3ccc(Oc4ccc(C(=O)c5ccc(*)cc5)cc4)c(C)c3)CCC3CCCCC3C2)cc1C` (repeat unit), the glass transition temperature is reported as 201.00 °C.
For `*c1ccc(-c2ccc(-n3c(-c4ccc(Oc5ccc(C(=O)c6cccc(C(=O)c7ccc(Oc8ccc(-c9nc%10ccccc%10n9*)cc8)cc7)c6)cc5)cc4)nc4ccccc43)cc2)cc1` (repeat unit), the glass transition temperature was 244.00 °C.
`*CC(*)C(=O)OCC` (repeat unit) [Poly(ethyl acrylate) ] showed a glass transition temperature of -22 ± 2.1 °C.
`*CC(*)c1ccc(COC)cc1` (repeat unit) [Poly(p-methoxymethyl styrene)] gave a glass transition temperature of 77 ± 0.6 °C.
`*CC(c1ccccc1)C1C(=O)N(c2ccc(C(C)(C)C)cc2)C(=O)C1*` (repeat unit) showed a glass transition temperature of 237.00 °C.
With `*O[Si](C)(C)O[Si](C)(C)O[Si](*)(C)c1c(F)c(F)c(F)c(F)c1F` (repeat unit) the glass transition temperature was -83.00 °C.
Work on `*Oc1ccc(C(c2ccc(Oc3ccc(C(=O)Nc4ccc(-c5ccc(NC(=O)c6ccc(*)cc6)cc5C(F)(F)F)c(C(F)(F)F)c4)cc3)cc2)(C(F)(F)F)C(F)(F)F)cc1` (repeat unit) yielded a glass transition temperature of 240.00 °C.
With `*/C=C/c1cc(OC)c(/C=C/c2ccc(/C=C(\Oc3ccccc3)c3ccc(/C(=C/c4ccc(*)cc4)c4ccc(Oc5ccccc5)cc4)cc3)cc2)cc1OC` (repeat unit) the glass transition temperature was 175.00 °C.
Compound `*CC(*)(C)C(=O)OCCC#N` (repeat unit) has a glass transition temperature of 91.00 °C.
In the case of `*CC(*)(C)C(=O)OCC1CC(NC(=O)C2CC(NC(=O)OC(C)(C)C)CN2C(=O)OC(C)(C)C)CN1C(=O)C1CC(NC(=O)OC(C)(C)C)CN1C(=O)OC(C)(C)C` (repeat unit), the glass transition temperature is reported as 200.00 °C.
In the case of `*/C=C/c1cc(OCCC(C)CCCC(C)C)c(*)cc1OC` (repeat unit), the glass transition temperature is reported as 54.50 °C.
For `*CC(*)(C)C(=O)OCC(C)(C)C1OCC(C)(C)CO1` (repeat unit), the glass transition temperature was 118.00 °C.
In the case of `*C(=O)Nc1ccc(Oc2ccccc2-c2ccccc2Oc2ccc(NC(=O)c3ccc4c(c3)C(=O)N(c3ccc(N5C(=O)c6ccc(*)cc6C5=O)cc3)C4=O)cc2)cc1` (repeat unit), the glass transition temperature is reported as 268.00 °C.
Compound `*CC(*)[Si](C)(C)Cc1ccccc1` (repeat unit) has a glass transition temperature of -24.00 °C.
Compound `*CC(*)(F)C(F)(F)F` (repeat unit) has a glass transition temperature of 49.00 °C.
For `*c1ccc(C(c2ccc(OCCCC)cc2)c2ccc(N(*)c3ccc(C)cc3)cc2)cc1` (repeat unit), the glass transition temperature was 170.00 °C.
`*Cc1ccccc1[Si](*)(C)C` (repeat unit) showed a glass transition temperature of 48.00 °C.
Work on `*Oc1ccc(NC(=O)c2cccc(C(=O)Nc3ccc(Oc4ccc(C(c5ccc(*)cc5)(C(F)(F)F)C(F)(F)F)cc4)cc3)c2)cc1` (repeat unit) yielded a glass transition temperature of 228.50 °C.
For `*CC(*)C(=O)OC(CC)CC` (repeat unit), the glass transition temperature was -6.00 °C.
In the case of `*CCCCCCCN1C(=O)c2ccc(C(=O)Oc3ccc(-c4ccc(OC(=O)c5ccc6c(c5)C(=O)N(*)C6=O)cc4)cc3)cc2C1=O` (repeat unit), the glass transition temperature is reported as 117.00 °C.
With `*Oc1ccc(S(=O)(=O)c2ccc(Oc3ccc(S(=O)(=O)c4ccc(-c5ccc(-c6ccc(S(=O)(=O)c7ccc(*)cc7)cc6)cc5)cc4)cc3)cc2)cc1` (repeat unit) the glass transition temperature was 281.00 °C.
`*CC(*)(C)C(=O)OCc1cc(Cl)ccc1Cl` (repeat unit) showed a glass transition temperature of 27.80 °C.
In the case of `*CCOC(=O)Nc1ccc(C)c(NC(=O)OCCOc2cc([N+](=O)[O-])ccc2/N=N/c2cn(*)c3ccc(-c4ccccc4)cc23)c1` (repeat unit), the glass transition temperature is reported as 165.00 °C.
Work on `*c1c(C)cc(Cc2cc(C)c(N3C(=O)c4cccc(Oc5c(C)cc(-c6cc(C)c(Oc7cccc8c7C(=O)N(*)C8=O)c(C)c6)cc5C)c4C3=O)c(C)c2)cc1C` (repeat unit) yielded a glass transition temperature of 289.00 °C.
`*c1ccc(S(=O)(=O)c2ccc(N3C(=O)c4ccc(Oc5ccc6c(c5)C(=O)N(*)C6=O)cc4C3=O)cc2)cc1` (repeat unit) gave a glass transition temperature of 286.00 ± 34 °C.
In the case of `*c1ccc2c(c1)C(=O)N(c1ccc(Oc3ccc(C(c4ccc(Oc5ccc(N6C(=O)c7ccc(C(*)(C(F)(F)F)C(F)(F)F)cc7C6=O)cc5C(F)(F)F)cc4)(C(F)(F)F)C(F)(F)F)cc3)c(C(F)(F)F)c1)C2=O` (repeat unit), the glass transition temperature is reported as 234.00 °C.
Compound `*OS(=O)(=O)c1cccc(C(=O)c2cccc(S(=O)(=O)Oc3ccc(C(C)(C)c4ccc(*)cc4)cc3)c2)c1` (repeat unit) has a glass transition temperature of 122.00 °C.
`*CC(*)c1ccc(C(=O)OCC(C)C)cc1` (repeat unit) showed a glass transition temperature of 90.00 °C.
`*CC(*)(C)C(=O)OCCCCCCOc1ccc(OC(=O)c2ccc(OCCCC)cc2)cc1` (repeat unit) gave a glass transition temperature of 36.00 °C.
`*CCCCCCOC(=O)C(=O)O*` (repeat unit) showed a glass transition temperature of 66.50 °C.
`*Nc1ccc(NC(=O)CCCCCCC(*)=O)cc1` (repeat unit) showed a glass transition temperature of 138.00 °C.
For `*c1ccc(C(c2ccccc2)c2ccc(N3C(=O)c4ccc(S(=O)(=O)c5ccc6c(c5)C(=O)N(*)C6=O)cc4C3=O)cc2)cc1` (repeat unit), the glass transition temperature was 305.00 °C.
For `*C(=O)c1ccc2c(c1)C(=O)N(c1ccc(-c3nc(-c4ccccc4)nc(-c4ccc(N5C(=O)c6ccc(*)cc6C5=O)cc4)n3)cc1)C2=O` (repeat unit), the glass transition temperature was 355.00 °C.
Compound `*Nc1cccc2c(NC(=O)Nc3cc(NC(*)=O)cc(C(=O)Nc4cccc5c4C(=O)c4ccccc4C5=O)c3)cccc12` (repeat unit) has a glass transition temperature of 185.00 °C.
Compound `*O[Si](*)(C)CCCOc1ccc(C(=O)OCCOc2ccc(C(=O)OC3CCC4(C)C(=CCC5C4CCC4(C)C(C(C)CCCC(C)C)CCC54)C3)cc2)cc1` (repeat unit) has a glass transition temperature of 42.00 °C.
`*O[Si](*)(C)CCCCCCCCCCC(=O)Oc1ccc(C(=O)Oc2ccc(-c3ccc(OC(=O)CCCCC(=O)OC4CC(C)CCC4C(C)C)cc3)cc2)cc1` (repeat unit) gave a glass transition temperature of 32.40 °C.
`*Nc1ccc(Cc2ccc(NC(=O)c3cc(C(*)=O)cc(N4C(=O)C5CC=CCC5C4=O)c3)cc2)cc1` (repeat unit) gave a glass transition temperature of 286.00 °C.
With `*CC(*)(CC(=O)OCCC)C(=O)OCCC` (repeat unit) the glass transition temperature was 46.50 °C.
For `*CC(O)COC(=O)c1cccc(C(=O)OCC(O)COc2ccc(C(C)(C)c3ccc(O*)cc3)cc2)c1` (repeat unit), the glass transition temperature was 97.00 °C.
`*c1ccc2c(c1)C(=O)N(c1cccc(C(=O)Nc3ccc(Oc4ccc(C(C)(C)c5ccc(Oc6ccc(NC(=O)c7cccc(N8C(=O)c9ccc(C(*)(C(F)(F)F)C(F)(F)F)cc9C8=O)c7)cc6)cc5)cc4)cc3)c1)C2=O` (repeat unit) gave a glass transition temperature of 259.00 °C.
`*c1ccc(Oc2ccc(C(C)(C)c3ccc(Oc4ccc(-c5nnc(*)n5-c5cccc(C(F)(F)F)c5)cc4)cc3)cc2)cc1` (repeat unit) showed a glass transition temperature of 190.00 °C.
